Laboratory results as given in US20090285916A1, “METHODS OF DIAGNOSIS AND TREATMENT OF EQUINE LAMINITIS AND CUSHING'S SYNDROME” (Pegasus Equine Diagnostics Limited, priority 2006, published 2009).

How the values were obtained:
[1] = tested on: PPID (pituitary pars intermedia dysfunction); test: Anecdotal evidence on melatonin and pergolide dosing in PPID horses and ponies; type: in vivo
Source text: From a chronological perspective obviously both groups of horses were aged (>16 years), but from the viewpoint of the Neuroendocrine Theory of Aging (21) the PPID group might be considered to be of greater “biological age” than the control group. […] There was also a pronounced dopamine rhythm phase shift and amplitude decrease for the PPID group in June and September, in addition to evidence of serotonin acrophase amplitudes being increased in September. These observations are consistent with the reduction in dopamine and concomitant increase in serotonin implied in the treatment of PPID horses with dopamine agonists and serotonin antagonists. […] This may also apply to the subsequent increases in follicle density and length plus coarsening of the hair structure that have been observed. It is worth noting that the significant differences between the groups in our results appear to pre-date the traditionally acknowledged seasons (spring, autumn) of increased laminitis susceptibility by approximately three months (as well as being present during such seasons); this is perhaps not when most practitioners would expect them. […] The situation may, of course, be exacerbated by other trigger factors for laminitis becoming part of the external conditions to which the horse is exposed, e.g. access to a flush of spring grass. Additionally, it might be expected that dopamine and serotonin would be the dominant factors implicated in investigating PPID, as defined by past treatment regimes. However, when the results of the present study were examined as a whole, taking into account assay sensitivity, the neurohormone rhythms that were discovered and neurohormone rhythms that exist in the literature for healthy horses (14, 40, 41), the signals felt to be most reliable were dopamine plasma concentrations and serotonin:melatonin and dopamine:melatonin plasma concentration ratios, with serotonin:dopamine only represented for two times in June (as shown in FIG. 6). […]

[2] = tested on: equine digital arteries; conditions: reference 38; cited from earlier work

## CCCN1C[C@H](CSC)C[C@@H]2c3cccc4[nH]cc(c34)C[C@H]21 [pergolide]
[1]
  effect of changing time of day of administration, changing the dosage (by as little as 0.05 mg per day) and under or over dosing: increase the probability that laminitis will occur
[1]; ponies
  maximum dosage for ponies: 0.75 mg

## COc1ccc2[nH]cc(CCNC(C)=O)c2c1 [melatonin]
[1]; low dosage 1.5 mg, in the evening each day, all year round
  shedding of the winter coat: facilitates shedding of the winter coat at the expected time

## NCCc1c[nH]c2ccc(O)cc12 [5-HT, 5-hydroxytryptamine]
[2]
  sensitivity of digital arteries to vasoconstrictive actions compared with other peripheral blood vessels: 30-40 fold
